Reference: paper PMC10281575, “PfCRT mutations conferring piperaquine resistance in falciparum malaria shape the kinetics of quinoline drug binding and transport” (PLOS Pathogens, 2023)
Several values for one entry are separate records, joined by “and”; a condition that tells them apart may be missing. Identical values can stand only once.

How the values were obtained:
PfCRT^HB3 = target: T1, PfCRT^HB3 (Plasmodium falciparum, UniProt Q8IBZ9); experiment: Radiolabeled drug uptake in X. laevis oocytes expressing wild type PfCRT^HB3; assay type: cell-based; details: pH 6.0
T1 construct: expressed in transfected cells; host or cells: Xenopus laevis oocytes injected with in vitro transcribed RNA (pSP64T)
T1 sequence (Q8IBZ9 whole entry): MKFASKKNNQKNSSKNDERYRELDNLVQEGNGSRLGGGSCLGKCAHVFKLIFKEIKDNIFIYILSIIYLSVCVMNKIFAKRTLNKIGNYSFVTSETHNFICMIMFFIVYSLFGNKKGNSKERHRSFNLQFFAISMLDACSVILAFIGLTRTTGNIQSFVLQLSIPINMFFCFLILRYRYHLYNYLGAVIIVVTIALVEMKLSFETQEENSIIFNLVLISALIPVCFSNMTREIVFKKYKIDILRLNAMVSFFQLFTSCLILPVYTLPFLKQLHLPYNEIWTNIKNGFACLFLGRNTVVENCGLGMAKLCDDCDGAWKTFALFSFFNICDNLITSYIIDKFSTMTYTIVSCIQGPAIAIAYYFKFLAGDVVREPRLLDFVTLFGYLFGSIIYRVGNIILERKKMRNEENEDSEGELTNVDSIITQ
Method: (§1) Adult female X. laevis frogs (purchased from NASCO) were anesthetized by submersion in a solution of 0.3% (w/v) 3-amino benzoate methanesulfonate for 15 min. Sections of the ovary were surgically removed and placed in Ca^2+-free ND96 buffer supplemented with 0.1% collagenase D (w/v; Roche), 0.5% BSA (w/v) and 9 mM Na2HPO4 at 18°C for 14–16 h while gently shaking. The oocytes were then washed several times with ND96 buffer (5 mM HEPES, pH 7.5, 96 mM NaCl, 2 mM KCl, 1.8 mM CaCl2, 1 mM MgCl2), supplemented with […] gentamycin. Healthy-looking stage V-VI oocytes were manually selected and randomly grouped for injection. A codon-optimized coding sequence of PfCRT was subcloned into the pSP64T expression vector and subsequently linearized using the restriction endonuclease BamHI or SalI (New England Biolabs GmbH). RNA for injection was transcribed in vitro using the mMESSAGE mMACHINE SP6 Transcription kit (Ambion), diluted with nuclease-free water to a final concentration of 0.6 μg/μL and stored at -80°C. RNA was injected using precision-bore glass capillary tubes (3.5-inch glass capillaries; Drummond Scientific Co.), which were pulled on a vertical puller (P-87 Flaming/Brown micropipette puller, Sutter Instrument Co.) and graduated. The micropipettes were connected to a microinjector (Nanoject II Auto-Nanoliter Injector, Drummond Scientific Co.). Injection was conducted under stereomicroscopic control. 50 nL of nuclease-free water alone (control oocytes) or 50 nL of nuclease-free water containing 30 ng of RNA was injected per oocyte. Injected oocytes were kept for 72 h at 18°C in ND96 buffer with two daily buffer changes before being used for further experiments.
(§2) Drug transport assays were performed as previously described. Briefly, measurements of radiolabeled drug uptake were made over 1 h, unless otherwise specified. […] Where specified, one or more unlabeled drugs were also present at the indicated concentrations. […] The uptake assays were terminated by removing the oocytes from the reaction medium and washing them three times with 2 mL of ice-cold ND96 buffer. Each oocyte was transferred to a separate scintillation vial and lysed by the addition of 200 μL of a 5% SDS solution. The radioactivity in the sample was measured using a liquid scintillation analyser Tri-Carb 4910 TR (PerkinElmer). Water-injected oocytes were analyzed in parallel as a negative control. The buffer from each condition was measured in duplicate in parallel to each experiment to transform counts per minute into pmol of drug. Drug uptake attributable to PfCRT was determined by subtracting the background uptake from water-injected oocytes from that of PfCRT-expressing oocytes. In all cases, at least three independent experiments were performed on oocytes from different frogs, and for each condition in an experiment, measurements were made from 10 oocytes per treatment.

PfCRT^Dd2_H97Y = target: T2, PfCRT^Dd2_H97Y (Plasmodium falciparum, UniProt Q8IBZ9, A220S/H97Y/I356T/K76T/M74I/N326S/N75E/Q271E/R371I); experiment: Radiolabeled drug uptake in X. laevis oocytes expressing PfCRT^Dd2_H97Y; assay type: cell-based; details: for Vmax, maximal velocity of drug transport / Km: Michaelis-Menten fit, 10-500 μM drug, pH 6; for Km: read-out: KM, Michaelis constant
T2 construct: expressed in transfected cells; host or cells: Xenopus laevis oocytes injected with in vitro transcribed RNA (pSP64T)
T2 sequence (Q8IBZ9 1-424 M74I/N75E/K76T/H97Y/A220S/Q271E/N326S/I356T/R371I): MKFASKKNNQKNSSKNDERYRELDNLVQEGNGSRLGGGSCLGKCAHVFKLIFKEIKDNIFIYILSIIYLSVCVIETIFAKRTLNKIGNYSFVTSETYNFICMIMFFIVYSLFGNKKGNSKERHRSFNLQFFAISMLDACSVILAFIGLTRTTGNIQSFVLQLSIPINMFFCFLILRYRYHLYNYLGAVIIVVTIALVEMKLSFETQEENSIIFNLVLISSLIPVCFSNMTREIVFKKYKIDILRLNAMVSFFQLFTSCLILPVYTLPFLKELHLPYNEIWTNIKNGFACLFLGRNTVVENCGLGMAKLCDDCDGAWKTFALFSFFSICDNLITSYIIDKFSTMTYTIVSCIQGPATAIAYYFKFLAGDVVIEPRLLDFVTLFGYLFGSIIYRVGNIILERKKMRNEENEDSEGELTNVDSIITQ
Text: A codon-optimized coding sequence of the Dd2 isoform of PfCRT (PfCRT^Dd2) was subcloned into the pSP64T expression vector [21]. To generate the necessary mutations to introduce the amino acid substitutions H97Y, F145I, M343L or G353V into the pfcrt sequence, the overlap extension method was used. A region from the 5’-untranslated Xenopus β-globin sequence to the respective 3’ region, containing the full length pfcrt coding sequence, was amplified using the following primer pairs: for the H97Y mutation, numbers 1/4 and 2/3; for the F145I mutation, numbers 1/6 and 2/5; for the M343L mutation, numbers 1/8 and 2/7; and for the G353V mutation, numbers 1/10 and 2/9 (for primers, see S2 Table). Both PCR products were used as template for amplification of the final product using primers number 1/2. The resulting fragment was cloned into the pSP64T expression vector, and the presence of the desired mutation was confirmed by sequencing.
as §1, §2

[1] = 50 μM PPQ, total uptake, one value per biological replicate
[2] = 50 μM PPQ, water-injected uptake subtracted, per replicate
[3] = 50 μM CQ, total uptake, one value per biological replicate
[4] = 50 μM CQ, water-injected uptake subtracted, per replicate

Question: `Clc1ccc2c(N3CCN(CCCN4CCN(c5ccnc6cc(Cl)ccc56)CC4)CC3)ccnc2c1` [PPQ, piperaquine] was tested. Which “PfCRTHB3I PPQ uptake at 30 min” value (PfCRT^HB3; [1]) did it give?
Answer: 72.50 pmol oocyte-1 and 74.50 pmol oocyte-1 and 59.24 pmol oocyte-1

Question: And the “PfCRTHB3 PPQ uptake at 10 min” value (PfCRT^HB3; [1])?
Answer: 38.64 pmol oocyte-1 and 39.15 pmol oocyte-1 and 28.68 pmol oocyte-1

Question: And the “PfCRTHB3 PPQ uptake at 60 min” value (PfCRT^HB3; [1])?
Answer: 123.26 pmol oocyte-1 and 113.71 pmol oocyte-1 and 93.83 pmol oocyte-1

Question: What about the “PfCRTHB3 PPQ uptake at 90 min” value (PfCRT^HB3; [1]) of the same compound?
Answer: 136.75 pmol oocyte-1 and 135.43 pmol oocyte-1 and 118.84 pmol oocyte-1

Question: What about the “PfCRTHB3 PPQ uptake at 120 min” value (PfCRT^HB3; [1]) of the same compound?
Answer: 198.78 pmol oocyte-1 and 176.89 pmol oocyte-1 and 174.87 pmol oocyte-1

Question: And the “PfCRTHB3 PPQ uptake at 180 min” value (PfCRT^HB3; [1])?
Answer: 161.64 pmol oocyte-1 and 186.48 pmol oocyte-1 and 220.34 pmol oocyte-1

Question: And the “PfCRTHB3-mediated PPQ uptake at 10 min” value (PfCRT^HB3; [2])?
Answer: 8.47 pmol oocyte-1 and 8.98 pmol oocyte-1 and -1.48 pmol oocyte-1

Question: And the “PfCRTHB3-mediated PPQ uptake at 30 min” value (PfCRT^HB3; [2])?
Answer: 7.50 pmol oocyte-1 and 9.50 pmol oocyte-1 and -5.76 pmol oocyte-1

Question: And the “PfCRTHB3-mediated PPQ uptake at 60 min” value (PfCRT^HB3; [2])?
Answer: 17.15 pmol oocyte-1 and 7.60 pmol oocyte-1 and -12.28 pmol oocyte-1

Question: What about the “PfCRTHB3-mediated PPQ uptake at 90 min” value (PfCRT^HB3; [2]) of the same compound?
Answer: 16.35 pmol oocyte-1 and 15.03 pmol oocyte-1 and -1.56 pmol oocyte-1

Question: And the “PfCRTHB3-mediated PPQ uptake at 120 min” value (PfCRT^HB3; [2])?
Answer: -20.70 pmol oocyte-1 and -22.71 pmol oocyte-1 and 1.19 pmol oocyte-1

Question: What about the “PfCRTHB3-mediated PPQ uptake at 180 min” value (PfCRT^HB3; [2]) of the same compound?
Answer: 33.25 pmol oocyte-1 and -25.45 pmol oocyte-1 and -0.62 pmol oocyte-1

Question: And the “PfCRTDd2_H97Y-mediated PPQ uptake at 10 µM PPQ” value (PfCRT^Dd2_H97Y; 10 µM PPQ, single replicates)?
Answer: 12.86 pmol oocyte-1 h-1 and 5.01 pmol oocyte-1 h-1 and 5.38 pmol oocyte-1 h-1

Question: And the “PfCRTDd2_H97Y-mediated PPQ uptake at 50 µM PPQ” value (PfCRT^Dd2_H97Y; 50 µM PPQ, single replicates)?
Answer: 31.25 pmol oocyte-1 h-1 and 73.07 pmol oocyte-1 h-1 and 57.01 pmol oocyte-1 h-1 and 61.85 pmol oocyte-1 h-1 and 37.57 pmol oocyte-1 h-1 and 17.78 pmol oocyte-1 h-1

Question: What about the “PfCRTDd2_H97Y-mediated PPQ uptake at 100 µM PPQ” value (PfCRT^Dd2_H97Y; 100 µM PPQ, single replicates) of the same compound?
Answer: 97.03 pmol oocyte-1 h-1 and 61.02 pmol oocyte-1 h-1 and 41.93 pmol oocyte-1 h-1 and 45.11 pmol oocyte-1 h-1

Question: What about the “PfCRTDd2_H97Y-mediated PPQ uptake at 300 µM PPQ” value (PfCRT^Dd2_H97Y; 300 µM PPQ, single replicates) of the same compound?
Answer: 103.79 pmol oocyte-1 h-1 and 76.95 pmol oocyte-1 h-1 and 76.45 pmol oocyte-1 h-1 and 130.46 pmol oocyte-1 h-1

Question: What about the “PfCRTDd2_H97Y-mediated PPQ uptake at 500 µM PPQ” value (PfCRT^Dd2_H97Y; 500 µM PPQ, single replicates) of the same compound?
Answer: 133.65 pmol oocyte-1 h-1 and 96.27 pmol oocyte-1 h-1 and 74.35 pmol oocyte-1 h-1 and 131.71 pmol oocyte-1 h-1

Question: What about the “Vmax, maximal velocity of drug transport” value (PfCRT^Dd2_H97Y) of the same compound?
Answer: 131 ± 6 pmol oocyte^-1 h^-1 and 183.94 pmol oocyte^-1 h^-1

Question: What about the Km (PfCRT^Dd2_H97Y) of the same compound?
Answer: 106 ± 14 µM

Question: `CCN(CC)CCCC(C)Nc1ccnc2cc(Cl)ccc12` (centres unmarked) [CQ, chloroquine] was tested. Which “PfCRTHB3 uptake of CQ at 10 min” value (PfCRT^HB3; [3]) did it give?
Answer: 3.76 pmol oocyte-1 and 2.69 pmol oocyte-1 and 4.10 pmol oocyte-1 and 2.94 pmol oocyte-1

Question: What about the “PfCRTHB3 uptake of CQ at 30 min” value (PfCRT^HB3; [3]) of the same compound?
Answer: 5.04 pmol oocyte-1 and 6.21 pmol oocyte-1 and 4.82 pmol oocyte-1

Question: And the “PfCRTHB3 uptake of CQ at 60 min” value (PfCRT^HB3; [3])?
Answer: 10.53 pmol oocyte-1 and 9.06 pmol oocyte-1 and 13.05 pmol oocyte-1 and 9.38 pmol oocyte-1

Question: What about the “PfCRTHB3 uptake of CQ at 90 min” value (PfCRT^HB3; [3]) of the same compound?
Answer: 10.44 pmol oocyte-1 and 13.59 pmol oocyte-1 and 10.43 pmol oocyte-1

Question: And the “PfCRTHB3 uptake of CQ at 120 min” value (PfCRT^HB3; [3])?
Answer: 15.66 pmol oocyte-1 and 14.17 pmol oocyte-1 and 15.57 pmol oocyte-1

Question: And the “PfCRTHB3 uptake of CQ at 180 min” value (PfCRT^HB3; [3])?
Answer: 15.78 pmol oocyte-1 and 15.62 pmol oocyte-1 and 19.97 pmol oocyte-1

Question: What about the “PfCRTDd2_HB3-mediated CQ uptake at 60 min” value (PfCRT^HB3; [4]) of the same compound?
Answer: 0.25 pmol oocyte-1 and -1.21 pmol oocyte-1 and 2.78 pmol oocyte-1 and -0.90 pmol oocyte-1

Question: What about the “PfCRTHB3-mediated CQ uptake at 10 min” value (PfCRT^HB3; [4]) of the same compound?
Answer: 0.87 pmol oocyte-1 and -0.20 pmol oocyte-1 and 1.21 pmol oocyte-1 and 0.05 pmol oocyte-1

Question: What about the “PfCRTHB3-mediated CQ uptake at 30 min” value (PfCRT^HB3; [4]) of the same compound?
Answer: 1.16 pmol oocyte-1 and -0.23 pmol oocyte-1 and 0.94 pmol oocyte-1 and -0.44 pmol oocyte-1

Question: What about the “PfCRTHB3-mediated CQ uptake at 90 min” value (PfCRT^HB3; [4]) of the same compound?
Answer: -0.39 pmol oocyte-1 and 2.75 pmol oocyte-1 and -0.41 pmol oocyte-1

Question: And the “PfCRTHB3-mediated CQ uptake at 120 min” value (PfCRT^HB3; [4])?
Answer: 0.98 pmol oocyte-1 and -0.51 pmol oocyte-1 and 0.90 pmol oocyte-1

Question: What about the “PfCRTHB3-mediated CQ uptake at 180 min” value (PfCRT^HB3; [4]) of the same compound?
Answer: -0.99 pmol oocyte-1 and -1.15 pmol oocyte-1 and 3.20 pmol oocyte-1

Question: What about the “PfCRTDd2_H97Y-mediated CQ uptake at 10 µM CQ” value (PfCRT^Dd2_H97Y; 10 µM CQ, single replicates) of the same compound?
Answer: 0.94 pmol oocyte-1 h-1 and 1.60 pmol oocyte-1 h-1 and 1.36 pmol oocyte-1 h-1

Question: And the “PfCRTDd2_H97Y-mediated CQ uptake at 50 µM CQ” value (PfCRT^Dd2_H97Y; 50 µM CQ, single replicates)?
Answer: 8.24 pmol oocyte-1 h-1 and 3.56 pmol oocyte-1 h-1 and 5.41 pmol oocyte-1 h-1 and 4.92 pmol oocyte-1 h-1 and 5.15 pmol oocyte-1 h-1

Question: And the “PfCRTDd2_H97Y-mediated CQ uptake at 100 µM CQ” value (PfCRT^Dd2_H97Y; 100 µM CQ, single replicates)?
Answer: 9.39 pmol oocyte-1 h-1 and 7.90 pmol oocyte-1 h-1 and 6.68 pmol oocyte-1 h-1

Question: What about the “PfCRTDd2_H97Y-mediated CQ uptake at 300 µM CQ” value (PfCRT^Dd2_H97Y; 300 µM CQ, single replicates) of the same compound?
Answer: 13.78 pmol oocyte-1 h-1 and 16.15 pmol oocyte-1 h-1 and 14.38 pmol oocyte-1 h-1

Question: And the “PfCRTDd2_H97Y-mediated CQ uptake at 500 µM CQ” value (PfCRT^Dd2_H97Y; 500 µM CQ, single replicates)?
Answer: 17.49 pmol oocyte-1 h-1 and 19.24 pmol oocyte-1 h-1 and 15.35 pmol oocyte-1 h-1

Question: What about the “Vmax, maximal velocity of drug transport” value (PfCRT^Dd2_H97Y) of the same compound?
Answer: 24 ± 1 pmol oocyte^-1 h^-1

Question: What about the Km (PfCRT^Dd2_H97Y) of the same compound?
Answer: 184 ± 16 µM
